We go through 13 substances from patent US12115209B2, “ROMO1-derived antimicrobial peptides including lysine substitution and variants thereof” (KOREA UNIVERSITY RESEARCH AND BUSINESS FOUNDATION, priority 2019, dated 2024).

The first assay has as its system Pseudomonas aeruginosa, Staphylococcus aureus, CRPA, MRSA. As to the kind of experiment: Increase in antibacterial activity (MBC) compared with KU-5878. The assay is classed as cell-based. To be noted: mark = antibacterial activity increased compared with KU-5878.
Turning to “-KMM-KGGKF-TFM-IG-GIR [d 58K 62K 68G 72A 75M]”, the Increase in activity result is “◯”.

“-KMMKK-GKFG-F--IGMGIR [d 58K 64G 69T 71M 72A]”: the Increase in activity entry is reported as “◯”.

With -KMMKKGGKFGTF-AIG-GIR [d 58K 71M 75M], the Increase in activity entry was “◯”.

For “-KMMKKGGKFGTF-AIGMGIR [Peptide K4-d58K-d71M]”, the Increase in activity result is listed as “◯”.

“-KMMKKGGKFGTFMAIGMGIR [5878-K4-d58K(=d59K)]”: the Increase in activity entry is “◯”.

“KK---KGGKFGTF-AIG-GIR [d 60M 61M 62K 71M 75M]”: the Increase in activity entry is “◯”.

In the case of “KK-M-KGGKF-TFM-IG-GIR [d 60M 62K 68G 72A 75M]”, the Increase in activity entry is reported as “◯”.

In the case of KK-MKKGGKFGTF--IGMGIR [d 60M 71M 72A], the Increase in activity result is recorded as “◯”.

As for KK-MKKGGKFGTF-AIG-GIR [d 60M 71M 75M], the Increase in activity result is “◯”.

In the case of “KK-MKKGGKFGTF-AIGMGIR [Peptide K4-d60M-d71M]”, the Increase in activity entry was “◯”.

With “KK-MKKGGKFGTFMAIGMGIR [5878-K4-d60M(=d61M)]”, the Increase in activity result is “◯”.

As for KKIIKKGGKFGTFIAIGIGIR [Peptide K4-4MI], the Increase in activity entry is listed as “◯”.

Take “KKMM-K-GKF-TFM-IG-GIR [d 62K 64G 68G 72A 75M]”: the Increase in activity result is recorded as “◯”.

A further assay has as its system Methicillin-resistant Staphylococcus aureus (MRSA, ATCC 33591). Put plainly: Minimum bactericidal concentration (MBC) assay. Type of assay: cell-based. Also noted: unit: µg/mL. To be noted: Tables 11-21, no unit printed. The procedure:
First, each of Pseudomonas aeruginosa (ATCC 27853) and Staphylococcus aureus (ATCC 29213) was cultured in 3% (w/v) TSB (tryptic soy broth) liquid medium at 37° C. and 200 rpm for 4 hours, and then further cultured under the same conditions for 3 hours to a concentration of 5×10^6 CFU/ml. Strain solutions were prepared by diluting each of the further cultured strains with SP (sodium phosphate; 10 mM sodium phosphate, 1% TSB) buffer to a final concentration of 2×10^5 CFU/ml. […]
(§1) In addition, 30 g/L of TS (tryptic soy) and 15 g/L of agar were dissolved in distilled water and sterilized, and then 25 ml of the solution was poured onto a 100 mm round plate and solidified at room temperature for one day or more, thereby preparing a TS agar plate. 10 μl of each reaction solution of the peptide and the strain was plated on the TS agar plate at a constant size, and incubated in an incubator at 37° C. for 18 hours, and then colony formation on the plate was checked.
Specifically, each type of bacteria was cultured in 3% (w/v) TSB (tryptic soy broth) liquid medium at 37° C. and 200 rpm for 4 hours, and then further cultured under the same conditions for 3 hours to a concentration of 5×10^6 CFU/ml. Strain solutions were prepared by diluting each of the further cultured strains with SP buffer to a final concentration of 2×10^5 CFU/ml.
Then, the KU-5878 peptide at varying concentrations (0 μg/ml to 300 μg/ml) was dispensed into each well of a 96-well microplate, and 100 μl (1×10^5 CFU/ml) of each of the prepared strain solutions was added thereto, mixed therewith, and allowed to react with the peptide in an incubator at 37° C. for 1 hour.
In addition, 10 μl of each reaction solution of the peptide and the strain was plated on the TS agar plate at a constant size, and incubated in an incubator at 37° C. for 18 hours, and then colony formation on the plate was checked.
With “-KMM-KGGKF-TFM-IG-GIR [d 58K 62K 68G 72A 75M]”, the MBC MRSA came to 18 µg/mL.

“-KMMKK-GKFG-F--IGMGIR [d 58K 64G 69T 71M 72A]” showed an MBC MRSA of 3 µg/mL.

-KMMKKGGKFGTF-AIG-GIR [d 58K 71M 75M] gave an MBC MRSA of 4 µg/mL.

The substance “-KMMKKGGKFGTF-AIGMGIR [Peptide K4-d58K-d71M]” returned an MBC MRSA of 10 µg/mL.

“-KMMKKGGKFGTFMAIGMGIR [5878-K4-d58K(=d59K)]”: the MBC MRSA is 2 µg/mL.

As for “KK---KGGKFGTF-AIG-GIR [d 60M 61M 62K 71M 75M]”, the MBC MRSA was 80 µg/mL.

On to “KK-M-KGGKF-TFM-IG-GIR [d 60M 62K 68G 72A 75M]”, for which the MBC MRSA is 5 µg/mL.

KK-MKKGGKFGTF--IGMGIR [d 60M 71M 72A] showed an MBC MRSA of 10 µg/mL.

Consider KK-MKKGGKFGTF-AIG-GIR [d 60M 71M 75M], for which the MBC MRSA came to 2 µg/mL.

“KK-MKKGGKFGTF-AIGMGIR [Peptide K4-d60M-d71M]”: the MBC MRSA worked out at 12 µg/mL.

In the case of “KK-MKKGGKFGTFMAIGMGIR [5878-K4-d60M(=d61M)]”, the MBC MRSA was determined as 2 µg/mL.

KKIIKKGGKFGTFIAIGIGIR [Peptide K4-4MI]: the “MBC MRSA” value worked out at 3.

In turn, “KKMM-K-GKF-TFM-IG-GIR [d 62K 64G 68G 72A 75M]” returned an MBC MRSA of 4 µg/mL.

Another assay relates to Pseudomonas aeruginosa (ATCC 27853). As to the kind of experiment: Minimum bactericidal concentration (MBC) assay. Conditions: Tables 11-21, no unit printed. The assay is classed as cell-based. Also noted: MBC Pseudomonas aeruginosa: unit: µg/mL. The procedure:
(§2) First, each of Pseudomonas aeruginosa (ATCC 27853) and Staphylococcus aureus (ATCC 29213) was cultured in 3% (w/v) TSB (tryptic soy broth) liquid medium at 37° C. and 200 rpm for 4 hours, and then further cultured under the same conditions for 3 hours to a concentration of 5×10^6 CFU/ml. Strain solutions were prepared by diluting each of the further cultured strains with SP (sodium phosphate; 10 mM sodium phosphate, 1% TSB) buffer to a final concentration of 2×10^5 CFU/ml.
(§3) Then, each peptide at varying concentrations (0 μg/ml to 300 μg/ml) was dispensed into each well of a 96-well microplate, and 100 μl (1×10^5 CFU/ml) of each of the prepared strain solutions was added thereto, mixed therewith, and allowed to react with the peptide in an incubator at 37° C. for 1 hour.
as §1, with “checked. The minimum bactericidal concentration was defined as the minimum concentration of the peptide at which no colony was formed, and the experimental results are shown in Table 1 below.” for “checked.”
Substance “-KMM-KGGKF-TFM-IG-GIR [d 58K 62K 68G 72A 75M]” showed an MBC Pseudomonas aeruginosa of 16 µg/mL.

“-KMMKK-GKFG-F--IGMGIR [d 58K 64G 69T 71M 72A]” registered an MBC Pseudomonas aeruginosa of 2 µg/mL.

Regarding -KMMKKGGKFGTF-AIG-GIR [d 58K 71M 75M], the MBC Pseudomonas aeruginosa was determined as 4 µg/mL.

Consider “-KMMKKGGKFGTF-AIGMGIR [Peptide K4-d58K-d71M]”, for which the MBC Pseudomonas aeruginosa was 10 µg/mL.

On to “-KMMKKGGKFGTFMAIGMGIR [5878-K4-d58K(=d59K)]”, for which the MBC Pseudomonas aeruginosa was found to be 2 µg/mL.

The substance “KK---KGGKFGTF-AIG-GIR [d 60M 61M 62K 71M 75M]” gave an MBC Pseudomonas aeruginosa of 80 µg/mL.

As to “KK-M-KGGKF-TFM-IG-GIR [d 60M 62K 68G 72A 75M]”, the MBC Pseudomonas aeruginosa was determined as 4 µg/mL.

KK-MKKGGKFGTF--IGMGIR [d 60M 71M 72A] returned an MBC Pseudomonas aeruginosa of 8 µg/mL.

Substance KK-MKKGGKFGTF-AIG-GIR [d 60M 71M 75M] had an MBC Pseudomonas aeruginosa of 2 µg/mL.

In turn, “KK-MKKGGKFGTF-AIGMGIR [Peptide K4-d60M-d71M]” returned an MBC Pseudomonas aeruginosa of 10 µg/mL.

The substance “KK-MKKGGKFGTFMAIGMGIR [5878-K4-d60M(=d61M)]” returned an MBC Pseudomonas aeruginosa of 2 µg/mL.

Regarding KKIIKKGGKFGTFIAIGIGIR [Peptide K4-4MI], the “MBC Pseudomonas aeruginosa” value turned out to be 3.

For the substance “KKMM-K-GKF-TFM-IG-GIR [d 62K 64G 68G 72A 75M]”, the MBC Pseudomonas aeruginosa came to 4 µg/mL.

The next assay has as its system CRPA. As to the kind of experiment: Minimum bactericidal concentration (MBC) assay. Conditions: Tables 11-21, no unit printed. More on the design: unit: µg/mL. The assay is classed as cell-based.
“-KMM-KGGKF-TFM-IG-GIR [d 58K 62K 68G 72A 75M]” showed an MBC CRPA of 15 µg/mL.

“-KMMKK-GKFG-F--IGMGIR [d 58K 64G 69T 71M 72A]” showed an MBC CRPA of 3 µg/mL.

As for -KMMKKGGKFGTF-AIG-GIR [d 58K 71M 75M], the MBC CRPA came to 2 µg/mL.

Substance “-KMMKKGGKFGTF-AIGMGIR [Peptide K4-d58K-d71M]” came in with an MBC CRPA of 10 µg/mL.

For “-KMMKKGGKFGTFMAIGMGIR [5878-K4-d58K(=d59K)]”, the MBC CRPA turned out to be 6 µg/mL.

In turn, “KK---KGGKFGTF-AIG-GIR [d 60M 61M 62K 71M 75M]” registered an MBC CRPA of 80 µg/mL.

In turn, “KK-M-KGGKF-TFM-IG-GIR [d 60M 62K 68G 72A 75M]” showed an MBC CRPA of 4 µg/mL.

KK-MKKGGKFGTF--IGMGIR [d 60M 71M 72A] came in with an MBC CRPA of 8 µg/mL.

For KK-MKKGGKFGTF-AIG-GIR [d 60M 71M 75M], the MBC CRPA was 3 µg/mL.

“KK-MKKGGKFGTF-AIGMGIR [Peptide K4-d60M-d71M]” displayed an MBC CRPA of 10 µg/mL.

“KK-MKKGGKFGTFMAIGMGIR [5878-K4-d60M(=d61M)]”: the MBC CRPA was 4 µg/mL.

Take KKIIKKGGKFGTFIAIGIGIR [Peptide K4-4MI]: the “MBC CRPA” value was determined as 3.

Substance “KKMM-K-GKF-TFM-IG-GIR [d 62K 64G 68G 72A 75M]” displayed an MBC CRPA of 4 µg/mL.

The next assay deals with Staphylococcus aureus (ATCC 29213). Put plainly: Minimum bactericidal concentration (MBC) assay. Type of assay: cell-based. Also noted: MBC Staphylococcus aureus: unit: µg/mL. To be noted: Tables 11-21, no unit printed. The procedure:
as §2, §3
as §1, with “checked. The minimum bactericidal concentration was defined as the minimum concentration of the peptide at which no colony was formed, and the experimental results are shown in Table 1 below.” for “checked.”
“-KMM-KGGKF-TFM-IG-GIR [d 58K 62K 68G 72A 75M]” displayed an MBC Staphylococcus aureus of 15 µg/mL.

The substance “-KMMKK-GKFG-F--IGMGIR [d 58K 64G 69T 71M 72A]” yielded an MBC Staphylococcus aureus of 2 µg/mL.

In turn, -KMMKKGGKFGTF-AIG-GIR [d 58K 71M 75M] showed an MBC Staphylococcus aureus of 3 µg/mL.

In the case of “-KMMKKGGKFGTF-AIGMGIR [Peptide K4-d58K-d71M]”, the MBC Staphylococcus aureus worked out at 8 µg/mL.

As for “-KMMKKGGKFGTFMAIGMGIR [5878-K4-d58K(=d59K)]”, the MBC Staphylococcus aureus came to 6 µg/mL.

On to “KK---KGGKFGTF-AIG-GIR [d 60M 61M 62K 71M 75M]”, for which the MBC Staphylococcus aureus stood at 80 µg/mL.

Consider “KK-M-KGGKF-TFM-IG-GIR [d 60M 62K 68G 72A 75M]”, for which the MBC Staphylococcus aureus was 4 µg/mL.

Consider KK-MKKGGKFGTF--IGMGIR [d 60M 71M 72A], for which the MBC Staphylococcus aureus was determined as 8 µg/mL.

On to KK-MKKGGKFGTF-AIG-GIR [d 60M 71M 75M], for which the MBC Staphylococcus aureus was 2 µg/mL.

“KK-MKKGGKFGTF-AIGMGIR [Peptide K4-d60M-d71M]” yielded an MBC Staphylococcus aureus of 10 µg/mL.

Substance “KK-MKKGGKFGTFMAIGMGIR [5878-K4-d60M(=d61M)]” had an MBC Staphylococcus aureus of 3 µg/mL.

For the substance KKIIKKGGKFGTFIAIGIGIR [Peptide K4-4MI], the “MBC Staphylococcus aureus” value is 2.

For “KKMM-K-GKF-TFM-IG-GIR [d 62K 64G 68G 72A 75M]”, the MBC Staphylococcus aureus is 4 µg/mL.
